The test concerns the target T1, TrAA12 (Trichoderma reesei, UniProt G0RPY6).
T1 construct: gene AA12
The test is described as follows: cytochrome c reduction at […] nm, Michaelis-Menten nonlinear fit. It counts as biochemical. The conditions noted are these: 50 uM cytochrome c, 4 uM PQQ, 1 mM CaCl2, 50 mM sodium acetate pH 5.5, 40 C; full cofactor occupancy assumed.

The structures appear in SMILES notation.

From paper PMC6881810, “Trichoderma reesei Dehydrogenase, a Pyrroloquinoline Quinone-Dependent Member of Auxiliary Activity Family 12 of the Carbohydrate-Active Enzymes Database: Functional and Structural Characterization” (Applied and Environmental Microbiology, 2019) come the findings set out here.

T1 sequence (G0RPY6 24-430): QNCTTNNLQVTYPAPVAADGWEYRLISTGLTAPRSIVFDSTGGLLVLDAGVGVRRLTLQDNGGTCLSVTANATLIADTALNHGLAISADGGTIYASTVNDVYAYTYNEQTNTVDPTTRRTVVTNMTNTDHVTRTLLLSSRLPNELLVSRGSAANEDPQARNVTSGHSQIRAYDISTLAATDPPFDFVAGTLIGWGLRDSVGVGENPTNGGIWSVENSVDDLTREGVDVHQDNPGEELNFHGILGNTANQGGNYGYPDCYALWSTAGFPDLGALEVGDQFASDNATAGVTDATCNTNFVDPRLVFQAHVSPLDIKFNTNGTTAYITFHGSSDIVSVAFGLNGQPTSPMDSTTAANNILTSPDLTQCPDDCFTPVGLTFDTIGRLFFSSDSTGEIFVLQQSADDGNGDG

With `C[C@@H]1OC(O)[C@@H](O)[C@H](O)[C@@H]1O` (stereo partly drawn) [L-fucose], the Km (usually the concentration of substrate that gives half-maximal velocity) came to 99.9 ± 9.7 mM.
